In ChEMBL document CHEMBL1158657, “Improved antitumor activity by modification of nogalamycin” (1979):
Converted amounts (≈) assume the structure as drawn. The source made the active and inactive calls. No cut-off for these calls is given here.

What was measured:
Format in all cases: functional
Colon 26 = assay: Antitumor activity against mouse Colon 26 cells xenografted in mouse assessed as increase in life span at 25 mg/kg, ip Q4D after 2 days; conditions: route intraperitoneal
B16 [1] = assay: Antitumor activity against mouse B16 cells xenografted in mouse assessed as increase in life span at 6 to 12 mg/kg/day, ip after 9 days; conditions: route intraperitoneal
[2] = system: Lewis lung carcinoma cell line; assay: Antitumor activity against mouse LLC cells xenografted in mouse assessed as increase in life span at 12.5 mg/kg/day, ip after 9 days; conditions: route intraperitoneal
L1210 [3] = assay: Antitumor activity against mouse L1210 cells xenografted in mouse assessed as increase in life span at 6.25 mg/kg/day, ip after 9 days; conditions: route intraperitoneal
P388 [4] = assay: Antitumor activity against mouse P388 cells xenografted in mouse assessed as increase in life span at 12.5 mg/kg/day, po after 9 days
P388 [5] = assay: Antitumor activity against mouse P388 cells xenografted in mouse assessed as increase in life span at 6.25 mg/kg/day, ip after 9 days; conditions: route intraperitoneal
P388 [6] = assay: Antitumor activity against mouse P388 cells xenografted in mouse assessed as increase in life span at 6.25 mg/kg/day, iv after 9 days
[7] = Antitumor activity against mouse CD8F1 cells xenografted in mouse assessed as increase in life span at 25 mg/kg, sc Q7D after 5 days; conditions: route subcutaneous
B16 [8] = assay: Antitumor activity against mouse B16 cells xenografted in mouse assessed as increase in life span at 10 mg/kg/day, ip after 9 days; conditions: route intraperitoneal
P388 [9] = assay: Antitumor activity against mouse P388 cells xenografted in mouse assessed as increase in life span at 3.13 mg/kg/day, iv after 9 days
L1210 [10] = assay: Antitumor activity against mouse L1210 cells xenografted in mouse assessed as increase in life span at 3.13 mg/kg/day, ip after 9 days; conditions: route intraperitoneal
L1210 [11] = assay: Cytotoxicity against mouse L1210 cells; conditions: Mus musculus, L1210, read-out: ID50
L1210 [12] = assay: Inhibition of DNA synthesis in mouse L1210 cells; conditions: read-out: ID50 (the source's name)
P388 [13] = assay: Antitumor activity against mouse P388 cells xenografted in mouse assessed as increase in life span at 12.5 mg/kg/day, iv after 9 days
B16 [14] = assay: Antitumor activity against mouse B16 cells xenografted in mouse assessed as increase in life span at 5 mg/kg/day, ip after 9 days; conditions: route intraperitoneal
P388 [15] = assay: Antitumor activity against mouse P388 cells xenografted in mouse assessed as increase in life span at 12.5 mg/kg/day, ip after 9 days; conditions: route intraperitoneal
L1210 [16] = assay: Inhibition of RNA synthesis in mouse L1210 cells at 10 nmole/ml
MC-38 = assay: Antitumor activity against mouse Colon 38 cells xenografted in mouse assessed as increase in life span at 25 mg/kg, sc Q7D after 2 days; conditions: route subcutaneous
B16 [17] = assay: Antitumor activity against mouse B16 cells xenografted in mouse assessed as increase in life span at 20 mg/kg/day, ip after 9 days; conditions: route intraperitoneal
L1210 [18] = assay: Inhibition of RNA synthesis in mouse L1210 cells; conditions: read-out: ID50 (the source's name)
L1210 [19] = assay: Antitumor activity against mouse L1210 cells xenografted in mouse assessed as increase in life span at 12.5 mg/kg/day, ip after 9 days; conditions: route intraperitoneal
B16 [20] = assay: Antitumor activity against mouse B16 cells xenografted in mouse assessed as increase in life span at 2.5 mg/kg/day, ip after 9 days; conditions: route intraperitoneal
B16 [21] = assay: Antitumor activity against mouse B16 cells xenografted in mouse assessed as increase in life span at 12.5 mg/kg/day, ip after 9 days; conditions: route intraperitoneal
P388 [22] = assay: Antitumor activity against mouse P388 cells xenografted in mouse assessed as increase in life span at 3.13 mg/kg/day, ip after 9 days; conditions: route intraperitoneal
L1210 [23] = assay: Antitumor activity against mouse L1210 cells xenografted in mouse assessed as increase in life span at 1 mg/kg/day, ip after 9 days; conditions: route intraperitoneal
P388 [24] = assay: Antitumor activity against mouse P388 cells xenografted in mouse assessed as increase in life span at 0.5 mg/kg/day, ip after 9 days; conditions: route intraperitoneal
P388 [25] = assay: Antitumor activity against mouse P388 cells xenografted in mouse assessed as increase in life span at 2 mg/kg/day, ip after 9 days; conditions: route intraperitoneal
B16 [26] = assay: Antitumor activity against mouse B16 cells xenografted in mouse assessed as increase in life span at 2 mg/kg/day, ip after 9 days; conditions: route intraperitoneal
P388 [27] = assay: Antitumor activity against mouse P388 cells xenografted in mouse assessed as increase in life span at 0.25 mg/kg/day, ip after 9 days; conditions: route intraperitoneal
P388 [28] = assay: Antitumor activity against mouse P388 cells xenografted in mouse assessed as increase in life span at 2 mg/kg/day, iv after 9 days
B16 [29] = assay: Antitumor activity against mouse B16 cells xenografted in mouse assessed as increase in life span at 1 mg/kg/day, ip after 9 days; conditions: route intraperitoneal
P388 [30] = assay: Antitumor activity against mouse P388 cells xenografted in mouse assessed as increase in life span at 0.25 mg/kg/day, iv after 9 days
P388 [31] = assay: Antitumor activity against mouse P388 cells xenografted in mouse assessed as increase in life span at 0.5 mg/kg/day, iv after 9 days
L1210 [32] = assay: Antitumor activity against mouse L1210 cells xenografted in mouse assessed as increase in life span at 2 mg/kg/day, ip after 9 days; conditions: route intraperitoneal
B16 [33] = assay: Antitumor activity against mouse B16 cells xenografted in mouse assessed as increase in life span at 0.5 mg/kg/day, ip after 9 days; conditions: route intraperitoneal
P388 [34] = assay: Antitumor activity against mouse P388 cells xenografted in mouse assessed as increase in life span at 1 mg/kg/day, ip after 9 days; conditions: route intraperitoneal
P388 [35] = assay: Antitumor activity against mouse P388 cells xenografted in mouse assessed as increase in life span at 1 mg/kg/day, iv after 9 days
B16 [36] = assay: Antitumor activity against mouse B16 cells xenografted in mouse assessed as increase in life span at 0.25 mg/kg/day, ip after 9 days; conditions: route intraperitoneal
L1210 [37] = assay: Antitumor activity against mouse L1210 cells xenografted in mouse assessed as increase in life span at 0.5 mg/kg/day, ip after 9 days; conditions: route intraperitoneal
L1210 [38] = assay: Antitumor activity against mouse L1210 cells xenografted in mouse assessed as increase in life span at 0.25 mg/kg/day, ip after 9 days; conditions: route intraperitoneal

## CO[C@H]1C[C@@](C)(O)Cc2cc3c(c(O)c21)C(=O)c1c(O)cc2c(c1C3=O)O[C@@H]1O[C@@]2(C)[C@H](O)[C@@H](N(C)C)[C@@H]1O
Colon 26
  Activity: 106%
B16 [1]
  Activity: 77%
[2]
  Activity: 38%
L1210 [3]
  Activity: 55%
P388 [4]
  Activity: 48%
P388 [5]
  Activity: 111%
P388 [6]
  Activity: 53%
[7]
  Activity: 1%
B16 [8]
  Activity: 114%
P388 [9]
  Activity: 25%
L1210 [10]
  Activity: 42%
L1210 [11]
  IC50: 0.061 mg/L (≈ 0.113 µM)
L1210 [12]
  IC50: > 46 µM
P388 [13]
  Activity: 187%
B16 [14]
  Activity: 88%
P388 [15]
  Activity: 197%
L1210 [16]
  inhibition (INH): 0%
MC-38
  Activity: 21%
B16 [17]
  Activity: -9%
L1210 [18]
  IC50: > 46 µM
L1210 [19]
  Activity: 140%
B16 [20]
  Activity: 64%
B16 [21]
  Activity: 109%
P388 [22]
  Activity: 61%

## COc1cccc2c1C(=O)c1c(O)c3c(c(O)c1C2=O)C[C@@](O)(C(=O)CO)C[C@@H]3O[C@H]1C[C@H](N)[C@H](O)[C@H](C)O1 [DOXORUBICIN]
L1210 [23]
  Activity: 38%
P388 [24]
  Activity: 137%
P388 [25]
  Activity: 7%
P388 [4]
  Activity: inactive
B16 [26]
  Activity: 158%
P388 [27]
  Activity: 61%
P388 [28]
  Activity: 29%
B16 [29]
  Activity: 166%
P388 [30]
  Activity: 8%
P388 [31]
  Activity: 3%
L1210 [32]
  Activity: 40%
B16 [33]
  Activity: 160%
P388 [34]
  Activity: 158%
P388 [35]
  Activity: 10%
B16 [36]
  Activity: 127%
L1210 [37]
  Activity: 29%
L1210 [38]
  Activity: 20%
